Columns and labels:
TNFα = assay: cells; type: cell-based, human; details: Homo sapiens, Monocyte, LPS-stimulated human monocytes, TNFα content; read-out: EC50 TNF
IRAK4 enzyme = IRAK4 enzyme (Homo sapiens (Human), UniProt Q9NWZ3); assay: biochemical; type: biochemical; details: IRAK4 enzyme, TR-FRET (HTRF), 500 μM ATP
Chain of IRAK4 enzyme (Q9NWZ3 whole entry): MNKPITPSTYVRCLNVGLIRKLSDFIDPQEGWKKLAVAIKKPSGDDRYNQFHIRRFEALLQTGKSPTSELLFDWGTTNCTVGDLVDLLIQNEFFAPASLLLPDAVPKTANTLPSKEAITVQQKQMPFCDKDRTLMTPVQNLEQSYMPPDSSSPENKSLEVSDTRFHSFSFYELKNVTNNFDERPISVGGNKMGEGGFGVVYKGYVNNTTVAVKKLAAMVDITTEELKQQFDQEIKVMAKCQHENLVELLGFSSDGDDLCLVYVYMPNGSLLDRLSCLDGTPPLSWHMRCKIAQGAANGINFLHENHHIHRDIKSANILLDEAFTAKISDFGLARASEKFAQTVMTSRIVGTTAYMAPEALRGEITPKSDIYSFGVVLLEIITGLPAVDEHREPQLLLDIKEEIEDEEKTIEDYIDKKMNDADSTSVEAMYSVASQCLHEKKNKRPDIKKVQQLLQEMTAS

SMILES	EC50 (TNFα) [nM]	IC50 (IRAK4 enzyme) [nM]
CC(C)(O)[C@H](F)CNC(=O)c1cnc(-c2ccc3cc(C#N)cnn23)cc1Nc1ccc(CO)nc1 [Example 664, (R)-6-(3-cyanopyrrolo[1,2-b]pyridazin-7-yl)-N-(2-fluoro-3-hydroxy-3-methylbutyl)-4-((6-(hydroxymethyl)pyridin-3-yl)amino)nicotinamide]	14	< 1
CC(C)(O)[C@H](F)CNC(=O)c1cnc(-c2ccc3cc(C#N)cnn23)cc1Nc1ccc2c(c1)C1(CC1)C(=O)N2 [Example 665, (R)-6-(3-cyanopyrrolo[1,2-b]pyridazin-7-yl)-N-(2-fluoro-3-hydroxy-3-methylbutyl)-4-((2′-oxospiro[cyclopropane-1,3′-indolin]-5′-yl)amino)nicotinamide]	299	8
CC(C)(O)[C@H](F)CNC(=O)c1cnc(-c2ccc3cc(C#N)cnn23)cc1Nc1cnc(C2CC2)nc1 [Example 666, (R)-6-(3-cyanopyrrolo[1,2-b]pyridazin-7-yl)-4-((2-cyclopropylpyrimidin-5-yl)amino)-N-(2-fluoro-3-hydroxy-3-methylbutyl) nicotinamide]	30	< 1
COc1ccc(Nc2cc(-c3ccc4cc(C#N)cnn34)ncc2C(=O)NC[C@@H](F)C(C)(C)O)nc1 [Example 667, (R)-6-(3-cyanopyrrolo[1,2-b]pyridazin-7-yl)-N-(2-fluoro-3-hydroxy-3-methylbutyl)-4-((5-methoxypyridin-2-yl)amino)nicotinamide]	45	< 1
CC(C)(O)[C@H](F)CNC(=O)c1cnc(-c2ccc3cc(C#N)cnn23)cc1Nc1cnc2c(c1)CC(=O)N2 [Example 668, (R)-6-(3-cyanopyrrolo[1,2-b]pyridazin-7-yl)-N-(2-fluoro-3-hydroxy-3-methylbutyl)-4-((2-oxo-2,3-dihydro-1H-pyrrolo[2,3-b]pyridin-5-yl)amino)nicotinamide]	165	1
CN(C)c1ncc(Nc2cc(-c3ccc4cc(C#N)cnn34)ncc2C(=O)NC[C@@H](F)C(C)(C)O)cn1 [Example 669, (R)-6-(3-cyanopyrrolo[1,2-b]pyridazin-7-yl)-4-((2-(dimethylamino)pyrimidin-5-yl)amino)-N-(2-fluoro-3-hydroxy-3-methylbutyl) nicotinamide]	4	< 1
CC(C)(O)[C@H](F)CNC(=O)c1cnc(-c2ccc3cc(C#N)cnn23)cc1Nc1ccc(CO)cn1 [Example 670, (R)-6-(3-cyanopyrrolo[1,2-b]pyridazin-7-yl)-N-(2-fluoro-3-hydroxy-3-methylbutyl)-4-((5-(hydroxymethyl)pyridin-2-yl)amino)nicotinamide]	> 10000	93
CC(C)(O)[C@H](F)CNC(=O)c1cnc(-c2ccc3cc(C#N)cnn23)cc1Nc1cnc(N2CCOCC2)nc1 [Example 671, (R)-6-(3-cyanopyrrolo[1,2-b]pyridazin-7-yl)-N-(2-fluoro-3-hydroxy-3-methylbutyl)-4-((2-morpholinopyrimidin-5-yl)amino)nicotinamide]	22	< 1
CC(C)(O)[C@H](F)CNC(=O)c1cnc(-c2ccc3cc(C#N)cnn23)cc1NC1Cc2ccncc2C1 (stereo partly drawn) [Example 672, 6-(3-cyanopyrrolo[1,2-b]pyridazin-7-yl)-4-((6,7-dihydro-5H-cyclopenta[c]pyridin-6-yl)amino)-N-((R)-2-fluoro-3-hydroxy-3-methylbutyl)nicotinamide]	66	< 1
CC(C)(O)[C@H](F)CNC(=O)c1cnc(-c2ccc3cc(C#N)cnn23)cc1Nc1ccc(N2CCOCC2)nc1 [Example 673, (R)-6-(3-cyanopyrrolo[1,2-b]pyridazin-7-yl)-N-(2-fluoro-3-hydroxy-3-methyl-butyl)-4-((6-morpholino-pyridin-3-yl)amino) nicotinamide]	19	< 1
CNC(=O)c1ncc(Nc2cc(-c3ccc4cc(C#N)cnn34)ncc2C(=O)NC[C@@H](F)C(C)(C)O)cn1 [Example 674, (R)-5-((2-(3-cyano-pyrrolo[1,2-b]pyridazin-7-yl)-5-((2-fluoro-3-hydroxy-3-methylbutyl)carbamoyl)pyridin-4-yl)amino)-N-methyl-pyrimidine-2-carboxamide]	67	< 1
CC(C)(O)[C@H](F)CNC(=O)c1cnc(-c2ccc3cc(C#N)cnn23)cc1Nc1ccc(N2CCC2)nc1 [Example 675, (R)-4-((6-(azetidin-1-yl)pyridin-3-yl)amino)-6-(3-cyanopyrrolo[1,2-b]pyridazin-7-yl)-N-(2-fluoro-3-hydroxy-3-methylbutyl)nicotinamide]	23	< 1
CC(C)(O)[C@H](F)CNC(=O)c1cnc(-c2ccc3cc(C#N)cnn23)cc1Nc1ccc(CC#N)nc1 [Example 678, (R)-4-((6-(cyanomethyl)pyridin-3-yl)amino)-6-(3-cyanopyrrolo[1,2-b]pyridazin-7-yl)-N-(2-fluoro-3-hydroxy-3-methylbutyl)nicotinamide]	9	< 1
CN(C)c1ccc(Nc2cc(-c3ccc4cc(C#N)cnn34)ncc2C(=O)NC[C@@H](F)C(C)(C)O)cn1 [Example 679, (R)-6-(3-cyanopyrrolo[1,2-b]pyridazin-7-yl)-4-((6-(dimethylamino)pyridin-3-yl)amino)-N-(2-fluoro-3-hydroxy-3-methylbutyl)nicotinamide]	17	< 1
CCc1ncc(Nc2cc(-c3ccc4cc(C#N)cnn34)ncc2C(=O)NC[C@@H](F)C(C)(C)O)cn1 [Example 680, (R)-6-(3-cyanopyrrolo[1,2-b]pyridazin-7-yl)-4-((2-ethylpyrimidin-5-yl)amino)-N-(2-fluoro-3-hydroxy-3-methylbutyl)nicotinamide]	15	< 1
CC(C)(O)[C@H](F)CNC(=O)c1cnc(-c2ccc3cc(C#N)cnn23)cc1Nc1cnc(N2CCC2)nc1 [Example 681, (R)-4-((2-(azetidin-1-yl)pyrimidin-5-yl)amino)-6-(3-cyanopyrrolo[1,2-b]pyridazin-7-yl)-N-(2-fluoro-3-hydroxy-3-methylbutyl) nicotinamide]	6	< 1
CC(C)(O)[C@H](F)CNC(=O)c1cnc(-c2ccc3cc(C#N)cnn23)cc1Nc1ccc(N2CC(F)(F)C2)nc1 [Example 682, (R)-6-(3-cyanopyrrolo[1,2-b]pyridazin-7-yl)-4-((6-(3,3-difluoroazetidin-1-yl)pyridin-3-yl)amino)-N-(2-fluoro-3-hydroxy-3-methylbutyl) nicotinamide]	22	1
CC(C)(C#N)c1ccc(Nc2cc(-c3ccc4cc(C#N)cnn34)ncc2C(=O)NC[C@@H](F)C(C)(C)O)cn1 [Example 683, (R)-4-((6-(2-cyanopropan-2-yl)pyridin-3-yl)amino)-6-(3-cyanopyrrolo[1,2-b]pyridazin-7-yl)-N-(2-fluoro-3-hydroxy-3-methyl-butyl)nicotinamide]	45	1
CC(C)(O)[C@H](F)CNC(=O)c1cnc(-c2ccc3cc(C#N)cnn23)cc1Nc1ccc(N2CC3(COC3)C2)nc1 [Example 684, (R)-4-((6-(2-oxa-6-azaspiro[3.3]heptan-6-yl)pyridin-3-yl)amino)-6-(3-cyanopyrrolo[1,2-b]pyridazin-7-yl)-N-(2-fluoro-3-hydroxy-3-methylbutyl)nicotinamide]	89	1
COc1cc(Nc2cc(-c3ccc4cc(C#N)cnn34)ncc2C(=O)NC[C@@H](F)C(C)(C)O)ccc1N1CCOCC1 [Example 685, (R)-6-(3-cyanopyrrolo[1,2-b]pyridazin-7-yl)-N-(2-fluoro-3-hydroxy-3-methylbutyl)-4-((3-methoxy-4-morpholino-phenyl)amino)nicotinamide]	398	10
C[C@@H]1CN(c2ncc(Nc3cc(-c4ccc5cc(C#N)cnn45)ncc3C(=O)NC[C@@H](F)C(C)(C)O)cn2)C[C@H](C)O1 [Example 686, 6-(3-cyanopyrrolo[1,2-b]pyridazin-7-yl)-4-((2-((2S,6R)-2,6-dimethyl-morpholino)pyrimidin-5-yl)amino)-N-((R)-2-fluoro-3-hydroxy-3-methylbutyl) nicotinamide]	20	< 1
CC(C)(O)[C@H](F)CNC(=O)c1cnc(-c2ccc3cc(C#N)cnn23)cc1Nc1ccc(F)cn1 [Example 687, (R)-6-(3-cyanopyrrolo[1,2-b]pyridazin-7-yl)-N-(2-fluoro-3-hydroxy-3-methylbutyl)-4-((5-fluoro-pyridin-2-yl)amino) nicotinamide]	42	< 1
CC(C)(O)[C@H](F)CNC(=O)c1cnc(-c2ccc3cc(C#N)cnn23)cc1Nc1ccc(N2CCS(=O)(=O)CC2)cc1 [Example 688, (R)-6-(3-cyanopyrrolo[1,2-b]pyridazin-7-yl)-4-((4-(1,1-dioxidothiomorpholino)phenyl)amino)-N-(2-fluoro-3-hydroxy-3-methylbutyl) nicotinamide]	24	< 1
CC(C)(O)[C@H](F)CNC(=O)c1cnc(-c2ccc3cc(C#N)cnn23)cc1Nc1cnc(N2CC3(CCOCC3)C2)nc1 [Example 689, (R)-4-((2-(7-oxa-2-azaspiro[3.5]nonan-2-yl)pyrimidin-5-yl)amino)-6-(3-cyanopyrrolo[1,2-b]pyridazin-7-yl)-N-(2-fluoro-3-hydroxy-3-methylbutyl)nicotinamide]	180	1
CC(C)(O)[C@H](F)CNC(=O)c1cnc(-c2ccc3cc(C#N)cnn23)cc1N[C@H]1C[C@H](CN)C1 [Example 692, 4-(((1r,3R)-3-(amino-methyl)cyclobutyl)amino)-6-(3-cyanopyrrolo[1,2-b]pyridazin-7-yl)-N-((R)-2-fluoro-3-hydroxy-3-methylbutyl)nicotinamide]	315	1
CC(C)(O)[C@H](F)CNC(=O)c1cnc(-c2ccc3cc(C#N)cnn23)cc1-c1ccc2cc(C#N)cnn12 [Example 693, (R)-4,6-bis(3-cyano-pyrrolo[1,2-b]pyridazin-7-yl)-N-(2-fluoro-3-hydroxy-3-methylbutyl)nicotinamide]	821	35

From US10336762B2 (priority 2017, dated 2019)
